{
  "source": "patent US11807644B2",
  "about": "(PMV Pharmaceuticals, Inc., priority 2020, dated 2023)",
  "data": [
    {"biological_target": "T1, recombinant His-tag Y220C p53 DBD protein (Homo sapiens, UniProt P04637, Y220C)", "T1 construct": "recombinant His-tag Y220C p53 DBD protein (amino acids #˜94-312)", "assay": "In vitro DNA binding activity assay (TR-FRET): binding of His-tag Y220C p53 DBD to biotin-labeled consensus DNA", "assay_type": "biochemical", "conditions": "SC150 = concentration to increase DNA binding by […], His-tag Y220C p53 DBD, biotin-labeled consensus DNA", "values": [
      {"smiles": "CN1CC[C@@H](Nc2cccc3c2cc(-c2noc(CNC(=O)c4ccn([C@H]5CC[C@@](C)(O)C5)c4)n2)n3CC(F)(F)F)[C@@H](F)C1", "note": "(stereo in doubt) [Compound 374B, Cis-N-{[3-(4-{[(3S,4R)-3-fluoro-1-methylpiperidin-4-yl]amino}-1-(2,2,2-trifluoroethyl)-1H-indol-2-yl)-1,2,4-oxadiazol-5-yl]methyl}-1-[(1R,3S)-3-hydroxy-3-methylcyclopentyl]-1H-pyrrole-3-carboxamide]", "Y220C SC150 (μM)": "* (* = 0 μM ≤ SC150 < 0.1 μM)"},
      {"smiles": "CN1CC[C@@H](Nc2cccc3c2cc(-c2noc(CNC(=O)c4ccc5ccn(C)c5c4)n2)n3CC(F)(F)F)[C@@H](F)C1", "note": "[Compound 254B, N-{[3-(4-{[(3S,4R)-3-fluoro-1-methylpiperidin-4-yl]amino}-1-(2,2,2-trifluoroethyl)-1H-indol-2-yl)-1,2,4-oxadiazol-5-yl]methyl}-1-methyl-1H-indole-6-carboxamide]", "Y220C SC150 (μM)": "* (* = 0 μM ≤ SC150 < 0.1 μM)"},
      {"smiles": "CN1CC[C@@H](Nc2cccc3c2cc(-c2ncc(CN)s2)n3CC(F)(F)F)[C@@H](F)C1", "note": "(racemic) [Compound 96B, (+/−)-2-[5-(aminomethyl)-1,3-thiazol-2-yl]-N-[(3R,4S)-3-fluoro-1-methylpiperidin-4-yl]-1-(2,2,2-trifluoroethyl)-1H-indol-4-amine]", "Y220C SC150 (μM)": "**** (**** = 1 μM ≤ SC150 < 10 μM)"},
      {"smiles": "CO[C@H]1CCCC[C@@H]1n1cc(C(=O)NCc2nc(-c3cc4c(N[C@@H]5CCN(C)C[C@@H]5F)cccc4n3CC(F)(F)F)no2)cn1", "note": "(relative stereo) [Compound 385B]", "Y220C SC150 (μM)": "* (* = 0 μM ≤ SC150 < 0.1 μM)"},
      {"smiles": "CC1(n2ccc(C(=O)NCc3nc(-c4cc5c(N[C@@H]6CNCC[C@@H]6F)cccc5n4CC(F)(F)F)no3)c2)CCOCC1", "note": "[Compound 420B, N-{[3-(4-{[(3R,4S)-4-fluoropiperidin-3-yl]amino}-1-(2,2,2-trifluoroethyl)-1H-indol-2-yl)-1,2,4-oxadiazol-5-yl]methyl}-1-(4-methyloxan-4-yl)-1H-pyrrole-3-carboxamide]", "Y220C SC150 (μM)": "* (* = 0 μM ≤ SC150 < 0.1 μM)"},
      {"smiles": "Cc1cc(C(=O)NCc2nc(-c3cc4c(N[C@@H]5CCN(C)C[C@@H]5F)cccc4n3CC(F)(F)F)no2)cn1C", "note": "[Compound 219B, N-{[3-(4-{[(3S,4R)-3-fluoro-1-methylpiperidin-4-yl]amino}-1-(2,2,2-trifluoroethyl)-1H-indol-2-yl)-1,2,4-oxadiazol-5-yl]methyl}-1,5-dimethyl-1H-pyrrole-3-carboxamide]", "Y220C SC150 (μM)": "* (* = 0 μM ≤ SC150 < 0.1 μM)"},
      {"smiles": "CN1CC[C@@H](Nc2cccc3c2cc(-c2noc(CNC(=O)c4ccn(CCC(=O)O)c4)n2)n3CC(F)(F)F)[C@@H](F)C1", "note": "[Compound 248B, 3-[3-({[3-(4-{[(3S,4R)-3-fluoro-1-methylpiperidin-4-yl]amino}-1-(2,2,2-trifluoroethyl)-1H-indol-2-yl)-1,2,4-oxadiazol-5-yl]methyl}carbamoyl)-1H-pyrrol-1-yl]propanoic acid]", "Y220C SC150 (μM)": "* (* = 0 μM ≤ SC150 < 0.1 μM)"},
      {"smiles": "CN1CCC(C(=O)NCc2nnc(-c3cc4c(N[C@@H]5CCN(C)C[C@@H]5F)cccc4n3CC(F)(F)F)s2)CC1", "note": "(racemic) [Compound 40B, (+/−)-N-{[5-(4-{[(3R,4S)-3-fluoro-1-methylpiperidin-4-yl]amino}-1-(2,2,2-trifluoroethyl)-1H-indol-2-yl)-1,3,4-thiadiazol-2-yl]methyl}-1-methylpiperidine-4-carboxamide]", "Y220C SC150 (μM)": "*** (*** = 0.5 μM ≤ SC150 < 1 μM)"},
      {"smiles": "COCC(C)(C)n1ccc(C(=O)NCc2nc(-c3cc4c(N[C@@H]5CCN(C)C[C@@H]5F)cccc4n3CC(F)(F)F)no2)c1", "note": "[Compound 383B, N-{[3-(4-{[(3S,4R)-3-fluoro-1-methylpiperidin-4-yl]amino}-1-(2,2,2-trifluoroethyl)-1H-indol-2-yl)-1,2,4-oxadiazol-5-yl]methyl}-1-(1-methoxy-2-methylpropan-2-yl)-1H-pyrrole-3-carboxamide]", "Y220C SC150 (μM)": "* (* = 0 μM ≤ SC150 < 0.1 μM)"},
      {"smiles": "CC(C)N1CC[C@@H](Nc2cccc3c2cc(-c2noc(CNC(=O)c4cnn(C(C)(C)C)c4)n2)n3CC(F)(F)F)[C@@H](F)C1", "note": "[Compound 316B, 1-tert-butyl-N-{[3-(4-{[(3S,4R)-3-fluoro-1-(propan-2-yl)piperidin-4-yl]amino}-1-(2,2,2-trifluoroethyl)-1H-indol-2-yl)-1,2,4-oxadiazol-5-yl]methyl}-1H-pyrazole-4-carboxamide]", "Y220C SC150 (μM)": "* (* = 0 μM ≤ SC150 < 0.1 μM)"},
      {"smiles": "CC(C)(C)n1ccc(C(=O)NCc2nc(-c3cc4c(N[C@@H]5CCC(=O)NC5)cccc4n3CC(F)(F)F)no2)c1", "note": "[Compound 367B, 1-tert-butyl-N-{[3-(4-{[(3R)-6-oxopiperidin-3-yl]amino}-1-(2,2,2-trifluoroethyl)-1H-indol-2-yl)-1,2,4-oxadiazol-5-yl]methyl}-1H-pyrrole-3-carboxamide]", "Y220C SC150 (μM)": "* (* = 0 μM ≤ SC150 < 0.1 μM)"},
      {"smiles": "CN1CCC(Nc2cccc3c2cc(-c2nnc(CNC(=O)c4cccc(CN5CCOCC5)c4)s2)n3CC(F)(F)F)CC1", "note": "[Compound 46B, N-[(5-{4-[(1-methylpiperidin-4-yl)amino]-1-(2,2,2-trifluoroethyl)-1H-indol-2-yl}-1,3,4-thiadiazol-2-yl)methyl]-3-[(morpholin-4-yl)methyl]benzamide]", "Y220C SC150 (μM)": "* (* = 0 μM ≤ SC150 < 0.1 μM)"},
      {"smiles": "O=C(NCc1nc(-c2cc3c(NCc4ccccc4)cccc3n2CC(F)(F)F)no1)C1CC1", "note": "[Compound 160B, N-({3-[4-(benzylamino)-1-(2,2,2-trifluoroethyl)-1H-indol-2-yl]-1,2,4-oxadiazol-5-yl}methyl)cyclopropanecarboxamide]", "Y220C SC150 (μM)": "** (** = 0.1 μM ≤ SC150 < 0.5 μM)"},
      {"smiles": "CO[C@]1(C)CC[C@H](n2ccc(C(=O)NCc3nc(-c4cc5c(N[C@@H]6CCN(C)C[C@@H]6F)cccc5n4CC(F)(F)F)no3)c2)C1", "note": "(racemic) [Compound 387B, cis-N-{[3-(4-{[(3S,4R)-3-fluoro-1-methylpiperidin-4-yl]amino}-1-(2,2,2-trifluoroethyl)-1H-indol-2-yl)-1,2,4-oxadiazol-5-yl]methyl}-1-[(1R,3S)-3-methoxy-3-methylcyclopentyl]-1H-pyrrole-3-carboxamide]", "Y220C SC150 (μM)": "* (* = 0 μM ≤ SC150 < 0.1 μM)"},
      {"smiles": "CN1CCC(Nc2cccc3c2cc(-c2nnc(CNC(=O)c4ccc5[nH]ncc5c4)s2)n3CC(F)(F)F)CC1", "note": "[Compound 55B, N-[(5-{4-[(1-methylpiperidin-4-yl)amino]-1-(2,2,2-trifluoroethyl)-1H-indol-2-yl}-1,3,4-thiadiazol-2-yl)methyl]-1H-indazole-5-carboxamide]", "Y220C SC150 (μM)": "** (** = 0.1 μM ≤ SC150 < 0.5 μM)"},
      {"smiles": "CN1CC[C@@H](Nc2cccc3c2cc(-c2nnc(CNC(=O)c4ccn(C(C)(C)C)c4)s2)n3CC(F)(F)F)[C@@H](F)C1", "note": "[Compound 286B, 1-tert-butyl-N-{[5-(4-{[(3S,4R)-3-fluoro-1-methylpiperidin-4-yl]amino}-1-(2,2,2-trifluoroethyl)-1H-indol-2-yl)-1,3,4-thiadiazol-2-yl]methyl}-1H-pyrrole-3-carboxamide]", "Y220C SC150 (μM)": "* (* = 0 μM ≤ SC150 < 0.1 μM)"},
      {"smiles": "Cc1c[nH]c2cc(C(=O)NCc3nc(-c4cc5c(N[C@@H]6CCN(C)C[C@@H]6F)cccc5n4CC(F)(F)F)no3)ccc12", "note": "[Compound 274B, N-{[3-(4-{[(3S,4R)-3-fluoro-1-methylpiperidin-4-yl]amino}-1-(2,2,2-trifluoroethyl)-1H-indol-2-yl)-1,2,4-oxadiazol-5-yl]methyl}-3-methyl-1H-indole-6-carboxamide]", "Y220C SC150 (μM)": "* (* = 0 μM ≤ SC150 < 0.1 μM)"},
      {"smiles": "CN1CC[C@H](Nc2cccc3c2cc(-c2nnc(CN)o2)n3CC(F)(F)F)[C@H](F)C1", "note": "(racemic) [Compound 116B, (+/−)-2-[5-(aminomethyl)-1,3,4-oxadiazol-2-yl]-N-[(3R,4S)-3-fluoro-1-methylpiperidin-4-yl]-1-(2,2,2-trifluoroethyl)-1H-indol-4-amine]", "Y220C SC150 (μM)": "*** (*** = 0.5 μM ≤ SC150 < 1 μM)"},
      {"smiles": "COc1cc(S(C)(=O)=O)ccc1NCc1nnc(-c2cc3c(N[C@H]4CCN(C)C[C@H]4F)cccc3n2CC(F)(F)F)o1", "note": "(racemic) [Compound 114B, (+/−)-N-[(3R,4S)-3-fluoro-1-methylpiperidin-4-yl]-2-(5-{[(4-methanesulfonyl-2-methoxyphenyl)amino]methyl}-1,3,4-oxadiazol-2-yl)-1-(2,2,2-trifluoroethyl)-1H-indol-4-amine]", "Y220C SC150 (μM)": "** (** = 0.1 μM ≤ SC150 < 0.5 μM)"},
      {"smiles": "CN1CC[C@@H](Nc2cccc3c2cc(-c2noc(CNC(=O)[C@@H]4C[C@@H]4C#N)n2)n3CC(F)(F)F)[C@@H](F)C1", "note": "(mixture of isomers) [Compound 195B, (1RS,2SR)-2-cyano-N-{[3-(4-{[(3S,4R)-3-fluoro-1-methylpiperidin-4-yl]amino}-1-(2,2,2-trifluoroethyl)-1H-indol-2-yl)-1,2,4-oxadiazol-5-yl]methyl}cyclopropane-1-carboxamide]", "Y220C SC150 (μM)": "* (* = 0 μM ≤ SC150 < 0.1 μM)"},
      {"smiles": "CN1CCC(Nc2cccc3c2cc(-c2noc(CNC(=O)[C@@H]4C[C@@H]4F)n2)n3CC(F)(F)F)CC1", "note": "(racemic) [Compound 147B, (1S,2S)-2-fluoro-N-[(3-{4-[(1-methylpiperidin-4-yl)amino]-1-(2,2,2-trifluoroethyl)-1H-indol-2-yl}-1,2,4-oxadiazol-5-yl)methyl]cyclopropane-1-carboxamide]", "Y220C SC150 (μM)": "* (* = 0 μM ≤ SC150 < 0.1 μM)"},
      {"smiles": "CN1CC[C@@H](Nc2cccc3c2cc(-c2noc(CNC(=O)c4csc(N(C)C)n4)n2)n3CC(F)(F)F)[C@@H](F)C1", "note": "[Compound 435B, 2-(dimethylamino)-N-{[3-(4-{[(3S,4R)-3-fluoro-1-methylpiperidin-4-yl]amino}-1-(2,2,2-trifluoroethyl)-1H-indol-2-yl)-1,2,4-oxadiazol-5-yl]methyl}-1,3-thiazole-4-carboxamide]", "Y220C SC150 (μM)": "* (* = 0 μM ≤ SC150 < 0.1 μM)"}
    ]},
    {"biological_target": "T1, recombinant His-tag Y220C p53 DBD protein", "assay": "In vitro DNA binding activity assay (TR-FRET): binding of His-tag Y220C p53 DBD to biotin-labeled consensus DNA", "assay_type": "biochemical", "conditions": "concentration to increase DNA binding by […], incubated at either 27° C. or 29° C. for 60 min", "values": [
      {"smiles": "O=C(NCc1ccc(-c2cc3c(NC4CCS(=O)(=O)CC4)cccc3n2CC(F)(F)F)cc1)c1ccc(Cl)cc1", "note": "[Compound 17A, 4-chloro-N-[(4-{4-[(1,1-dioxo-1λ^6-thian-4-yl)amino]-1-(2,2,2-trifluoroethyl)-1H-indol-2-yl}phenyl)methyl]benzamide]", "SC150 (μM)": "++ (++ = 2 μM ≤ SC150 < 5 μM)"}
    ]}
  ]
}
